# Results: PubChem BioAssay AID588639 (Sanford-Burnham Center for Chemical Genomics, 2011)
# Where “and” joins values, the source holds several entries; their conditions need not be identical. Equal values may be shown once. Calls of active or inactive are those of the source. The rule behind the calls is not given here.
# Biological target: Alkaline phosphatase, tissue-nonspecific isozyme (Homo sapiens) (UniProt P05186)
# Assay: inhibition of tissue-nonspecific alkaline phosphatase – biochemical, set 2, selectivity assay for mouse IAP inhibitor project, SAR follow-up (AID 588639)
# Conditions: purified human TNAP enzyme activity, counter-screen for mouse IAP
# Alkaline phosphatase, tissue-nonspecific isozyme (Homo sapiens), sequence (P05186 whole entry, looked up): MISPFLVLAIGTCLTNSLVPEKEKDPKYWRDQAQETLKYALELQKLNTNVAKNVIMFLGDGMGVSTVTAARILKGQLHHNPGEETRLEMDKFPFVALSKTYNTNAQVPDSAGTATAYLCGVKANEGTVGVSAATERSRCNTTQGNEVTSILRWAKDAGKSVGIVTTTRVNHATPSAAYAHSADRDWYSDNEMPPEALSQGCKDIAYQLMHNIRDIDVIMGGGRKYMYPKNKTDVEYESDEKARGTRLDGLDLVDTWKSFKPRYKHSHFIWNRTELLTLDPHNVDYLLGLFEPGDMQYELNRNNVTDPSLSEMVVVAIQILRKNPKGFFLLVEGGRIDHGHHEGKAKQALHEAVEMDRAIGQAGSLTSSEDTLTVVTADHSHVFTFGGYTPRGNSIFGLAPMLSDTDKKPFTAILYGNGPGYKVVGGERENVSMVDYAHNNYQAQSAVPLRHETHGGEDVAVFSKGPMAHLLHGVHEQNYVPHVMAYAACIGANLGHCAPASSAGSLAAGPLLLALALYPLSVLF
row,IC50,Structure (SMILES)
1,> 100 µM (inactive),COc1ccc(CNS(=O)(=O)c2ccc3[nH]c(=O)oc3c2)c(OC)c1
2,> 100 µM (inactive),COc1ccc(C(=O)N/N=C/c2ccccc2F)cc1
3,> 100 µM (inactive),Cc1ccc(NC(=O)CCNS(=O)(=O)c2ccc3c(c2)oc(=O)n3C)cc1C
4,> 100 µM (inactive),O=C(CCNS(=O)(=O)c1ccc2[nH]c(=O)oc2c1)NCc1cccc(C(F)(F)F)c1
5,> 100 µM (inactive),O=C(N/N=C/c1ccccc1F)c1ccc(O)cc1O
6,> 100 µM (inactive),O=C(NN=Cc1ccccc1F)c1ccc(O)cc1
7,> 100 µM (inactive),Cc1ccc(CNC(=O)C2CCCN(S(=O)(=O)c3ccc4[nH]c(=O)oc4c3)C2)cc1 (stereo unspecified)
8,> 100 µM (inactive),Cc1cc(NC(=O)CCNS(=O)(=O)c2ccc3[nH]c(=O)oc3c2)ccc1Br
9,> 100 µM (inactive),O=C(NCc1ccc(F)cc1)C1CCCN(S(=O)(=O)c2ccc3[nH]c(=O)oc3c2)C1 (stereo unspecified)
10,> 100 µM (inactive),CC(C)Oc1ccc(CNC(=O)C2CCCN(S(=O)(=O)c3ccc4[nH]c(=O)oc4c3)C2)cc1 (stereo unspecified)
11,> 100 µM (inactive),CC(C)c1ccc(/C=N/NC(=O)c2cc(O)c(O)c(O)c2)cc1
12,> 100 µM (inactive),COc1ccc(/C=N/NC(=O)c2cc(O)c(O)c(O)c2)cc1OC
13,> 100 µM (inactive),COc1cccc(NC(=O)CCNS(=O)(=O)c2ccc3c(c2)oc(=O)n3C)c1
14,> 100 µM (inactive),Cc1ccc(C)c(NC(=O)C2CCCN(S(=O)(=O)c3ccc4c(c3)oc(=O)n4C)C2)c1 (stereo unspecified)
15,> 100 µM (inactive),COc1ccc(C(=O)N/N=C/c2c(F)cccc2Cl)cc1OC
16,> 100 µM (inactive),CCc1ccc(NC(=O)C2CCCN(S(=O)(=O)c3ccc4c(c3)oc(=O)n4C)C2)cc1 (stereo unspecified)
17,> 100 µM (inactive),COc1ccc(CNC(=O)CCNS(=O)(=O)c2ccc3[nH]c(=O)oc3c2)cc1
18,> 100 µM (inactive),COc1ccc(CNC(=O)CNS(=O)(=O)c2ccc3[nH]c(=O)oc3c2)cc1

row,IC50,Structure (SMILES)
1,> 100 µM (inactive),O=C(CCS(=O)(=O)Nc1ccc2[nH]c(=O)oc2c1)NCc1ccccc1Cl
2,> 100 µM (inactive),O=C(CCNS(=O)(=O)c1ccc2[nH]c(=O)oc2c1)NCCc1ccc(O)cc1
3,> 100 µM (inactive),COc1ccc(OC)c(NC(=O)CCNS(=O)(=O)c2ccc3c(c2)oc(=O)n3C)c1
4,> 100 µM (inactive),O=C(N/N=C/c1ccccc1Cl)c1cc(O)c(O)c(O)c1
5,> 100 µM (inactive),Cc1ccc(CNC(=O)CCNS(=O)(=O)c2ccc3[nH]c(=O)oc3c2)cc1
6,> 100 µM (inactive),COc1ccc(NC(=O)CCNS(=O)(=O)c2ccc3ccccc3c2)cc1OC
7,> 100 µM (inactive),COc1cccc(/C=N/NC(=O)c2cc(O)c(O)c(O)c2)c1O
8,> 100 µM (inactive),O=C(N/N=C/c1cc(Br)ccc1F)c1ccc(O)cc1
9,> 100 µM (inactive),O=C(N/N=C/c1c(Cl)cccc1Cl)c1cc(O)c(O)c(O)c1
10,> 100 µM (inactive),COc1ccc(CNC(=O)CCCNS(=O)(=O)c2ccc3[nH]c(=O)oc3c2)c(OC)c1
11,> 100 µM (inactive),O=C(N/N=C/c1ccc(Br)cc1F)c1cc(O)ccc1O
12,> 100 µM (inactive),O=c1[nH]c2ccc(S(=O)(=O)NCc3ccc4c(c3)OCO4)cc2o1
13,> 100 µM (inactive) and 73.8 µM,COc1cccc(CNC(=O)CNS(=O)(=O)c2ccc3[nH]c(=O)oc3c2)c1
14,> 100 µM (inactive),COc1ccc(CNC(=O)C2CCCN(S(=O)(=O)c3ccc4[nH]c(=O)oc4c3)C2)cc1 (stereo unspecified)
15,> 100 µM (inactive),CC(=NNC(=O)c1ccccc1OCCOc1ccccc1)c1ccccc1F
16,> 100 µM (inactive),O=C(N/N=C/c1cccc(Cl)c1Cl)c1cc(O)c(O)c(O)c1
17,> 100 µM (inactive),Cc1ccccc1CNC(=O)C1CCCN(S(=O)(=O)c2ccc3[nH]c(=O)oc3c2)C1 (stereo unspecified)
18,> 100 µM (inactive),COc1ccc(NC(=O)CCCNS(=O)(=O)c2ccc3[nH]c(=O)oc3c2)c(OC)c1
